US5142051A, “N-phosphonylmethoxyalkyl derivatives of pyrimidine and purine bases and a therapeutical composition therefrom with antiviral activity” (Ceskoslovenska Akademie Ved, priority 1986, dated 1992)
Converted amounts (≈) assume the structure as drawn. Like-named read-outs stand apart in the source and are kept apart here.

Key:
[1] = Cytotoxicity: observable morphological changes in uninfected tissue culture cells; details: rabbit, prk cells
[2] = tested on: HSV-2 (Lyons); assay: Inhibition of virus-induced cytopathic effect in PRK-cells, HSV-2 (Lyons); assay type: cell-based; details: read-out: MIC50
[3] = tested on: HSV-1 (F); assay: Inhibition of virus-induced cytopathic effect in PRK-cells, HSV-1 (F); assay type: cell-based; details: read-out: MIC50
[4] = tested on: HSV-2 (G); assay: Inhibition of virus-induced cytopathic effect in PRK-cells, HSV-2 (G); assay type: cell-based; details: read-out: MIC50
[5] = tested on: DNA viruses; details: background statement, in words; cited from earlier work
[6] = tested on: vaccinia virus (VV); assay: microbe, parasite or virus in culture; assay type: cell-based; details: Orthopoxvirus vaccinia, PRK, read-out: MIC50
[7] = tested on: strains or mutants devoid of thymidine kinase; details: in words; cited from earlier work
[8] = tested on: HSV-2 (196); assay: Inhibition of virus-induced cytopathic effect in PRK-cells, HSV-2 (196); assay type: cell-based; details: read-out: MIC50
[9] = tested on: HSV-1 (KOS); assay: Inhibition of virus-induced cytopathic effect in PRK-cells, HSV-1 (KOS); assay type: cell-based; details: read-out: MIC50
[10] = tested on: HSV-1 (McIntyre); assay: Inhibition of virus-induced cytopathic effect in PRK-cells, HSV-1 (McIntyre); assay type: cell-based; details: read-out: MIC50
[11] = tested on: TK^- mutants of herpes viruses type 1 and 2; assay: Antiviral effect against TK^- mutants of herpes viruses; assay type: cell-based; details: in words
[12] = tested on: vaccinia virus; assay type: cell-based; details: in words
[13] = in words; cited from earlier work
[14] = tested on: HSV-1 TK^- (Cheng); assay: Inhibition of virus-induced cytopathic effect in PRK-cells, HSV-1 TK^- (Cheng); assay type: cell-based; details: Human alphaherpesvirus 1, PRK, read-out: MIC50
[15] = tested on: HSV-1 TK^- (Field); assay: Inhibition of virus-induced cytopathic effect in PRK-cells, HSV-1 TK^- (Field); assay type: cell-based; details: Human alphaherpesvirus 1, PRK, read-out: MIC50
[16] = Human alphaherpesvirus 2, HSV-2 (Lyons), PRK-cells, 50% inhibition of cytopathic effect
[17] = Human alphaherpesvirus 1, HSV-1 (F), PRK-cells, 50% inhibition of cytopathic effect
[18] = Human alphaherpesvirus 2, HSV-2 (G), PRK-cells, 50% inhibition of cytopathic effect
[19] = Human alphaherpesvirus 2, HSV-2 (196), PRK-cells, 50% inhibition of cytopathic effect
[20] = Human alphaherpesvirus 1, HSV-1 (KOS), PRK-cells, 50% inhibition of cytopathic effect
[21] = Human alphaherpesvirus 1, HSV-1 (McIntyre), PRK-cells, 50% inhibition of cytopathic effect

| Compound | MCC [1] [µg/mL] | EC50 [2, 16] [µg/mL] | EC50 [3, 17] [µg/mL] | EC50 [4, 18] [µg/mL] | EC50 [6] [µg/mL] | EC50 [8, 19] [µg/mL] | EC50 [9, 20] [µg/mL] | EC50 [10, 21] [µg/mL] | EC50 [15] [µg/mL] | also measured |
| --- | --- | --- | --- | --- | --- | --- | --- | --- | --- | --- |
| Nc1ncnc2c1ncn2C[C@@H](CO)OCP(=O)(O)O [Adenin-9-yl, (S)--CH2 OH, 9-(S)-(2-phosphonylmethoxy-3-hydroxypropyl)adenine, reference compound] | 100 | 20 (≈ 66 µM) | 7 (≈ 23.1 µM) | 20 (≈ 66 µM) | 7 (≈ 23.1 µM) | 7 (≈ 23.1 µM) | 20 (≈ 66 µM) | 1 (≈ 3.3 µM) | – | antiviral activity [5]: very potent antivirals, acting specifically against DNA viruses; effect where Zovirax, DHPG fail [7]: effective even in those cases where the above-mentioned drugs fail; effect against TK^- mutants of herpes viruses type 1 and 2 [11]: highly effective; effect against vaccinia virus [12]: highly effective |
| Nc1nc(N)c2ncn(CCOCP(=O)(O)O)c2n1 [2-Aminoadenin-9-yl, H] | 200 | 2 (≈ 6.94 µM) | 2 (≈ 6.94 µM) | 2 (≈ 6.94 µM) | 70 (≈ 243 µM) | 2 (≈ 6.94 µM) | 7 (≈ 24.3 µM) | 2 (≈ 6.94 µM) | – | – |
| Nc1ncnc2c1ncn2CCOCP(=O)(O)O [PMEA, 9-(2-phosphonylmethoxyethyl)adenine] | – | – | – | – | – | – | – | – | – | antiviral activity [5]: very potent antivirals, acting specifically against DNA viruses; effect where Zovirax, DHPG fail [7]: effective even in those cases where the above-mentioned drugs fail; effect against TK^- mutants of herpes viruses type 1 and 2 [11]: highly effective; effect against vaccinia virus [12]: highly effective |
| Nc1nc2c(ncn2COC(CO)CO)c(=O)[nH]1 [DHPG, 9-(1,3-dihydroxy-2-propoxymethyl)guanine] | – | – | – | – | – | – | – | – | – | water-solubility [13]: low water-solubility; sensitivity of strains or mutants devoid of thymidine kinase [7]: not sensitive |
| Nc1ncc2ncn(CCOCP(=O)(O)O)c2n1 [2-Aminopurin-9-yl, H] | 200 | 7 (≈ 25.6 µM) | 70 (≈ 256 µM) | 20 (≈ 73.2 µM) | 200 (≈ 732 µM) | 20 (≈ 73.2 µM) | 70 (≈ 256 µM) | 70 (≈ 256 µM) | 150 (≈ 549 µM) | EC50 [14]: 150 µg/mL (≈ 549 µM) |
| O=c1[nH]c(=O)n([C@H]2C[C@H](O)[C@@H](CO)O2)cc1C=CBr [5-(2-Bromovinyl)-2'-deoxyuridine, 5-(2-bromovinyl)-2' -deoxyuridine, reference compound] | 400 | – | – | – | 7 (≈ 21 µM) | – | – | – | – | EC50 ([2]; Human alphaherpesvirus 2, PRK): 10 µg/mL (≈ 30 µM); EC50 ([3]; Human alphaherpesvirus 1, PRK): 0.02 µg/mL (≈ 0.06 µM); EC50 ([4]; Human alphaherpesvirus 2, PRK): 4 µg/mL (≈ 12 µM); sensitivity of strains or mutants devoid of thymidine kinase [7]: usually also resistant; EC50 ([8]; Human alphaherpesvirus 2, PRK): 1 µg/mL (≈ 3 µM); EC50 ([9]; Human alphaherpesvirus 1, PRK): 0.02 µg/mL (≈ 0.06 µM); EC50 ([10]; Human alphaherpesvirus 1, PRK): 0.02 µg/mL (≈ 0.06 µM) |
| O=P(O)(O)COC(CO)Cn1cnc2c(NO)ncnc21 (racemic) [6-Hydroxylaminopurin-9-yl, (RS)--CH2 OH] | 400 | 20 (≈ 62.7 µM) | 20 (≈ 62.7 µM) | 20 (≈ 62.7 µM) | 7 (≈ 21.9 µM) | 20 (≈ 62.7 µM) | 20 (≈ 62.7 µM) | 7 (≈ 21.9 µM) | – | – |
| Nc1nc2c(ncn2CCOCP(=O)(O)O)c(=O)[nH]1 [Guanin-9-yl, H] | 40 | 7 (≈ 24.2 µM) | 2 (≈ 6.92 µM) | 4 (≈ 13.8 µM) | 7 (≈ 24.2 µM) | 2 (≈ 6.92 µM) | 7 (≈ 24.2 µM) | 2 (≈ 6.92 µM) | – | – |
| Nc1nc2c(ncn2CC(CO)OCP(=O)(O)O)c(=O)[nH]1 (racemic) [Guanin-9-yl, (RS)--CH2 OH] | 400 | 20 (≈ 62.7 µM) | 7 (≈ 21.9 µM) | 20 (≈ 62.7 µM) | 2 (≈ 6.27 µM) | 20 (≈ 62.7 µM) | 20 (≈ 62.7 µM) | 2 (≈ 6.27 µM) | 10 (≈ 31.3 µM) | – |
| Cc1cn(C[C@@H](CO)OCP(=O)(O)O)c(=O)[nH]c1=O [Thymin-1-yl, (S)--CH2 OH] | 400 | 70 (≈ 238 µM) | 150 (≈ 510 µM) | 20 (≈ 68 µM) | 300 (≈ 1020 µM) | 150 (≈ 510 µM) | 70 (≈ 238 µM) | 70 (≈ 238 µM) | 200 (≈ 680 µM) | EC50 [14]: 400 µg/mL (≈ 1360 µM) |
| Nc1ccn(C[C@@H](CO)OCP(=O)(O)O)c(=O)n1 [Cytosin-1-yl, (S)--CH2 OH] | 100 | – | – | – | 0.2 (≈ 0.716 µM) | – | – | – | 7 (≈ 25.1 µM) | EC50 [14]: 10 µg/mL (≈ 35.8 µM); EC50 ([2]; Human alphaherpesvirus 2, PRK): 20 µg/mL (≈ 71.6 µM); EC50 ([3]; Human alphaherpesvirus 1, PRK): 2 µg/mL (≈ 7.16 µM); EC50 ([4]; Human alphaherpesvirus 2, PRK): 20 µg/mL (≈ 71.6 µM); EC50 ([8]; Human alphaherpesvirus 2, PRK): 2 µg/mL (≈ 7.16 µM); EC50 ([9]; Human alphaherpesvirus 1, PRK): 7 µg/mL (≈ 25.1 µM); EC50 ([10]; Human alphaherpesvirus 1, PRK): 1 µg/mL (≈ 3.58 µM) |
| Nc1nc(N)c2ncn(C[C@@H](CO)OCP(=O)(O)O)c2n1 [2-Aminoadenin-9-yl, (S)--CH2 OH] | 200 | 7 (≈ 22 µM) | 7 (≈ 22 µM) | 4 (≈ 12.6 µM) | 0.7 (≈ 2.2 µM) | 7 (≈ 22 µM) | 20 (≈ 62.8 µM) | 2 (≈ 6.28 µM) | – | – |
| Nc1nccc2c1ncn2C[C@@H](CO)OCP(=O)(O)O [3-Deazaadenin-9-yl, (S)--CH2 OH] | 40 | 0.2 (≈ 0.662 µM) | 0.2 (≈ 0.662 µM) | 0.1 (≈ 0.331 µM) | – | 0.7 (≈ 2.32 µM) | 0.2 (≈ 0.662 µM) | 0.7 (≈ 2.32 µM) | – | – |
| Nc1nc2c(ncn2COCCO)c(=O)[nH]1 [Zovirax] | – | – | – | – | – | – | – | – | – | sensitivity of strains or mutants devoid of thymidine kinase [7]: not sensitive |
| NNc1ncnc2c1ncn2CC(CO)OCP(=O)(O)O (racemic) [6-Hydrazinopurin-9-yl, (RS)--CH2 OH] | 400 | 70 (≈ 220 µM) | 70 (≈ 220 µM) | 70 (≈ 220 µM) | 20 (≈ 62.8 µM) | 70 (≈ 220 µM) | 150 (≈ 471 µM) | 70 (≈ 220 µM) | 40 (≈ 126 µM) | – |
